# Results published in ChEMBL document CHEMBL1201862, “PubChem BioAssay data set” (2004).
# Calls of active or inactive are those of the source.
# How the values were obtained:
# [1] = molecular target: Cytochrome P450 2C9 (Homo sapiens, UniProt P11712)
# [2] = cells; assay type: functional, cell-based
# [3] = cells; assay type: functional, cell-based; remark: listed apart in the source
# [4] = tested on: Streptococcus; experiment: Group A Streptococcus viability loss, dose response, counter-screen for streptokinase expression inhibitor project, luminescence, BacTiterGlo (AID 1915); assay type: functional, organism-based;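 also: potency for reduction of bacterial viability or growth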
# [5] = molecular target: T1, Streptokinase A (Streptococcus pyogenes serotype M1, UniProt P10520); experiment: S. pyogenes streptokinase expression inhibitors, potency, dose response, plasminogen activation absorbance, OD405 (AID 1914); assay type: functional, Streptococcus pyogenes M1 GAS;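 also: secreted streptokinase activity via plasminogen activation per viability signal from cell pellet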
# T1 sequence (P10520 whole entry): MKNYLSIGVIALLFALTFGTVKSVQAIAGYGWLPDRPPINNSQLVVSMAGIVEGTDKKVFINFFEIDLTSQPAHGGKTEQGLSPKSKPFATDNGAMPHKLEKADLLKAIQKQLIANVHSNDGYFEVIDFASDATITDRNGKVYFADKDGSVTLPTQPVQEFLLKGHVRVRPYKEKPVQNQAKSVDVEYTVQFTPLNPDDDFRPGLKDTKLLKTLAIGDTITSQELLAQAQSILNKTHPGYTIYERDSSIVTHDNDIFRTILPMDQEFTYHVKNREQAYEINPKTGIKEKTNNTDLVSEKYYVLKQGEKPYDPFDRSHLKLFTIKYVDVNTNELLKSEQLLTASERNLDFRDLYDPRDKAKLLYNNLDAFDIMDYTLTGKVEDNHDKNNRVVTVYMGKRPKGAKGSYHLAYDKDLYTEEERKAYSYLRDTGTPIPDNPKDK
# [6] = tested on: Streptococcus sp. 'group A'; experiment: growth inhibition of control SK(-) GAS strain, dose response, counter-screen for streptokinase expression inhibitor project, luminescence, kanamycin, BacTiterGlo, confirmation (AID 1900); assay type: functional, organism-based
# [7] = molecular target: Cytochrome P450 2C19 (Homo sapiens, UniProt P33261); experiment: Cytochrome panel assay with activity outcomes. Panel member name: p450-cyp2c19 Compounds with AC50 equal or less than 10 uM are considered active; assay type: functional; conditions: read-out: AC50
# Chain of Cytochrome P450 2C19 (P33261 whole entry): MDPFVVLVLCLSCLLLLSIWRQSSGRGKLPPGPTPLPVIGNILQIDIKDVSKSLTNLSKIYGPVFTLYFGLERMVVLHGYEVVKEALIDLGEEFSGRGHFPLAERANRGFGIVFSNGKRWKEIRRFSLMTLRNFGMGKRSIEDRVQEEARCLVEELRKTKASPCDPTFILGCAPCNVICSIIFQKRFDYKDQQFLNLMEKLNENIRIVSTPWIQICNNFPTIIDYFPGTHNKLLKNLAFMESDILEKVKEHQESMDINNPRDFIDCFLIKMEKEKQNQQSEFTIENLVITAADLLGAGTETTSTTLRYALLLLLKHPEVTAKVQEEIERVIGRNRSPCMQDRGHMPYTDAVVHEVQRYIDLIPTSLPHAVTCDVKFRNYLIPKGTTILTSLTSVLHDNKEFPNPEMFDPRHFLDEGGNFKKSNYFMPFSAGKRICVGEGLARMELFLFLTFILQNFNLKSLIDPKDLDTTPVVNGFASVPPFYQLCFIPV
# [8] = molecular target: Luciferin 4-monooxygenase (Photinus pyralis, UniProt P08659); experiment: firefly luciferase enzyme inhibitors, dose response, biochemical, luminescence (AID 1891)
# Chain of Luciferin 4-monooxygenase (P08659 whole entry): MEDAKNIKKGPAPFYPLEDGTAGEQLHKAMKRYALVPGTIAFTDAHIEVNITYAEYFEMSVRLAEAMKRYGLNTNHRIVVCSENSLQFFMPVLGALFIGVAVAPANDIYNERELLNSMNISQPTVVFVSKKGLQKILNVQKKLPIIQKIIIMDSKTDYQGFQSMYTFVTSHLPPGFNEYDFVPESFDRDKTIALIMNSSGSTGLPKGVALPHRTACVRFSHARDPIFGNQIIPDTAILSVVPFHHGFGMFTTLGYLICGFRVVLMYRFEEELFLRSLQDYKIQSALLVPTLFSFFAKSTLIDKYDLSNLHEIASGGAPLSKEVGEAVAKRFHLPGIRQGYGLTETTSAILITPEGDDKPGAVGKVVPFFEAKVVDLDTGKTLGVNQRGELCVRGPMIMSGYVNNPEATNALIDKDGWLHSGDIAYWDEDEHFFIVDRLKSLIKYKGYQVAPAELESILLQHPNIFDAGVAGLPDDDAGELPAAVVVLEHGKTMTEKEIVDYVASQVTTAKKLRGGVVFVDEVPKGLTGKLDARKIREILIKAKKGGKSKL
# [9] = Luminescence Cell-Based Dose Confirmation HTS to Identify Inhibitors of Platelet Dense Granule Release. [Related pubchem assays: 1663 (Primary HTS), 1678 (Summary of Project)]; assay type: functional
# [10] = molecular target: T2, Heat shock factor protein 1 (Mus musculus, UniProt P38532); experiment: inhibition of MG132-induced HSE-luciferase signal, confirmation, cell-based, NIH3T3, luminescence, dose retest (AID 2382); assay type: functional;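 also: NIH3T3 fibroblasts with HSF1-driven luciferase reporter stressed by proteasome inhibitor MG132; luminescence from HSF1-driven luciferase expression after 8 hours of MG132 stress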
# T2 sequence (P38532 whole entry): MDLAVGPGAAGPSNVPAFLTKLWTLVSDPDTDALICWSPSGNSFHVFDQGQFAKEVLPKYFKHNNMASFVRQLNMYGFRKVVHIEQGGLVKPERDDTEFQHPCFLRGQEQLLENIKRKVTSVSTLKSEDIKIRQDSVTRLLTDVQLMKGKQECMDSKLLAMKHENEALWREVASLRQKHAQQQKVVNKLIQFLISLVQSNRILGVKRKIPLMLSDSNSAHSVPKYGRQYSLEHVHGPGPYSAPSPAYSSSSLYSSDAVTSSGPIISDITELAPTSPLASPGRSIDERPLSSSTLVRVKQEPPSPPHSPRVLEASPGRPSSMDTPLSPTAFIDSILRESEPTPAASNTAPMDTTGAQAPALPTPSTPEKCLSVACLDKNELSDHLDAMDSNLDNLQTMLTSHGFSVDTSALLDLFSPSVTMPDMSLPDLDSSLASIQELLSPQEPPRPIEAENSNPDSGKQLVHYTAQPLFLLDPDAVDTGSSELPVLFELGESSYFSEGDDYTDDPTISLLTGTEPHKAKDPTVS
# [11] = inhibitors of firefly luciferase expression or activity, dose response, H4 neuroglioma cells, luminescence (AID 1990); assay type: functional, cell-based
# [12] = Luminescence Cell-Based Dose Response HTS to Identify Inhibitors of 5'UTR Stem-Loop Driven Prion Protein mRNA Translation in H4 Neuroglioblastoma Cells. [Related pubchem assays: 1827 (Project Summary), 1813 (Primary HTS)]; assay type: functional
# [13] = inhibitors of SNCA 5'UTR-driven reporter translation, confirmation, H4 neuroglioma cells, luminescence (AID 1988); assay type: functional, cell-based
# [14] = Shn3 3'UTR reporter inhibitors, dose response, cell-based, Clone20 osteoblasts, firefly luciferase, cherry-picked (AID 624132); assay type: functional;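 also: firefly luciferase luminescence from reporter carrying the Shn3 3'UTR in osteoblasts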
# [15] = control 3'UTR Renilla luciferase suppression, dose response, counter-screen for Shn3 inhibitor project, cell-based, Clone20-Shn3RL, cherry-picked (AID 624133); assay type: functional
# [16] = HepG2 cell cytotoxicity, dose response, cytotoxicity control for Shn3 inhibitor project, CellTiter-Glo, cherry-picked (AID 624134); assay type: functional, cell-based
# [17] = molecular target: T3, Corticotropin-releasing factor receptor 2/Corticotropin-releasing factor-binding protein (Homo sapiens, UniProt P24387+Q13324); experiment: activators of CRF receptor 2 with binding protein – uHTS hits, confirmation (AID 602473); assay type: functional; conditions: read-out: EC50_Mean
# T3 sequence (Q13324 whole entry): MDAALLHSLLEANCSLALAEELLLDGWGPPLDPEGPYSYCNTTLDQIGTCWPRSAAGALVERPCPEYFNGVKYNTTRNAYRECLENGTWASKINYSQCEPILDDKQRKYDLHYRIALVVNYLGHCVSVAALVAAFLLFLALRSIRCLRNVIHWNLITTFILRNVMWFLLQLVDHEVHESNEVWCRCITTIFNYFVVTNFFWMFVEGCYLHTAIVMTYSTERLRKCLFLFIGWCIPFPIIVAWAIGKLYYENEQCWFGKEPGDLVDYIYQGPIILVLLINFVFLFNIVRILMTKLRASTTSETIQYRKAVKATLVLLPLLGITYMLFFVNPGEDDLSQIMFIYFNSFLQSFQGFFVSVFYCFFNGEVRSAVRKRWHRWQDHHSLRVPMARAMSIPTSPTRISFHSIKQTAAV
# T3 sequence (P24387 whole entry): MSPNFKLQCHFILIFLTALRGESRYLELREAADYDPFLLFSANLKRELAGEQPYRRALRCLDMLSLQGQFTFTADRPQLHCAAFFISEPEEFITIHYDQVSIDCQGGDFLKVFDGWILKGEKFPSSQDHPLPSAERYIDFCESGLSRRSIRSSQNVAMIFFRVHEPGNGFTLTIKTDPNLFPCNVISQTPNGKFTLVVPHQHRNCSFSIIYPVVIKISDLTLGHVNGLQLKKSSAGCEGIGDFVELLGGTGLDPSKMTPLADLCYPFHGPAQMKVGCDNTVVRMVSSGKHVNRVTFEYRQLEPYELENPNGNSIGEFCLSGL
# [18] = molecular target: T3, Corticotropin-releasing factor receptor 2/Corticotropin-releasing factor-binding protein; experiment: Dose Response confirmation of uHTS hits for small molecule antagonists of the CRF-binding protein and CRF-R2 receptor complex.; assay type: functional; conditions: read-out: IC50_Mean
# Chain of Cytochrome P450 2C9 (P11712 whole entry): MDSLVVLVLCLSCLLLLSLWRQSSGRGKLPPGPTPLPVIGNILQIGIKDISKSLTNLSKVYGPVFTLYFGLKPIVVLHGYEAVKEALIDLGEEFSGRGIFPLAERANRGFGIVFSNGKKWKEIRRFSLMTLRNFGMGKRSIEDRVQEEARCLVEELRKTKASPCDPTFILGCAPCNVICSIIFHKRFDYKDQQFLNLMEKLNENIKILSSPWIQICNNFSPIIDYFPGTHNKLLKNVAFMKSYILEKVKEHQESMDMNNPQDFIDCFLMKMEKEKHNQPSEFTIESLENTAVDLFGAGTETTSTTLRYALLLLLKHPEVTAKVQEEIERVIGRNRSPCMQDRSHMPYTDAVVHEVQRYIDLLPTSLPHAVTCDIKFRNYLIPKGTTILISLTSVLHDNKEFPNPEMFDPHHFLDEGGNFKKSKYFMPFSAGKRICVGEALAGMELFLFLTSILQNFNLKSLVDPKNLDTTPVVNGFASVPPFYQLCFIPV
compound,measurement,setting,value
Cc1ccc(-n2nnnc2SCC(=O)NNC(=O)c2ccco2)c(C)c1,AC50,[1],inconclusive
COC(=O)c1ccc(C(C(=O)NCc2ccccc2)N(Cc2ccco2)C(=O)c2cnccn2)cc1 (configuration not stated),EC50,[2],> 350 µM (not active)
same,EC50,[3],> 350 µM (not active)
NC(S)=Nc1cccc2cccnc12,AC50,[1],inconclusive
COc1ccc(/C=C2/Sc3ccc(C(=O)N4CCc5ccccc5C4)cc3NC2=O)cc1,EC50,[4],4.98 µM (active)
same,EC50,[5],> 150 µM (not active)
same,EC50,[6],1.73 µM (active)
COc1ccc(/C=N/NC(=S)Nc2cc(S(=O)(=O)N3CCOCC3)ccc2N2CCOCC2)cc1O,EC50,[2],> 350 µM (not active)
same,EC50,[3],> 350 µM (not active)
CCOC(=O)c1c(NC(S)=NCCc2ccccc2)sc2c1CC(C(C)C)OC2 (configuration not stated),EC50,[4],15.1 µM (active)
same,EC50,[5],> 150 µM (not active)
same,EC50,[6],0.814 µM (active)
CCOC(=O)c1c(NC(=O)CCc2ccc(CC)o2)sc(C)c1C,AC50,[1],inconclusive
Cc1ccc2cc3cc(C(=O)N4CCC5(CC4)OCCO5)oc3nc2c1,AC50,[1],inconclusive
CCn1nnnc1SCC(=O)NC1CCCC1,AC50,[7],35.5 µM (inconclusive)
same,EC50,[8],> 112 µM (not active)
same,EC50,[9],> 112 µM (not active)
Cc1cc(C)c(C#N)c(SC[S+]([O-])c2ccc(C(C)(C)C)cc2)n1 (configuration not stated),AC50,[1],inconclusive
COc1cccc(C(=O)NC(=S)Nc2ccccc2N2CCCCC2)c1,EC50,[4],> 150 µM (not active)
same,EC50,[5],41 µM (active)
same,EC50,[6],57.8 µM (active)
O=C(Nc1ccccn1)c1c(O)c2cccc3c2n(c1=O)CCC3,EC50,[8],> 112 µM (not active)
same,EC50,[9],> 112 µM (not active)
Cc1ccc(/C(O)=C/C=N/c2ccccn2)cc1,EC50,[10],4.24 µM (active)
same,EC50,[11],3.18 µM (active)
same,EC50,[12],1.4 µM (active)
same,EC50,[8],1.64 µM (active)
same,EC50,[13],0.188 µM (active)
same,EC50,[9],5.11 µM (active)
Cc1ccc(-c2cnn(-c3ccccc3)c2N)cc1,EC50,[8],1.92 µM (active)
same,EC50,[9],2.57 µM (active)
COc1ccccc1N(C)S(=O)(=O)c1ccc(C(=O)Nc2cc(F)ccc2C)cc1,AC50,[14],13.8 µM (active)
same,AC50,[15],26.5 µM (active)
same,AC50,[16],> 70 µM (inactive)
Cc1nc(N)sc1-c1csc(N(C)c2ccc(O)cc2)n1,EC50,[17],> 53 µM (inactive)
same,EC50,[4],95.2 µM (active)
same,EC50,[5],> 150 µM (not active)
same,IC50,[18],> 47.1 µM (inactive)
same,EC50,[6],5.24 µM (active)
CC(C)[C@@H](C(=O)NC1CCCC1)N1C(=O)N2CCc3c([nH]c4ccccc34)[C@@]2(C)C1=O,EC50,[4],> 150 µM (not active)
same,EC50,[5],> 150 µM (not active)
same,EC50,[6],30.2 µM (active)
